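Following 48 hours of exposure in 96-well plates, responses at five concentrations were used to interpolate endpoints linearly. TGI marks complete inhibition of growth.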
How the values were obtained:
Assay in all cases: growth of human tumour cells (NCI), 48 h
786-0 renal = tested on: 786-0 renal
CCRF-CEM leukemia = tested on: CCRF-CEM leukemia
EKVX NSCLC = tested on: EKVX NSCLC
HCT-116 colon = tested on: HCT-116 colon
KM12 colon = tested on: KM12 colon
MDA-N = tested on: MDA-N
NCI-H23 lung = tested on: NCI-H23 lung
OVCAR-5 ovarian = tested on: OVCAR-5 ovarian
RXF 393 renal = tested on: RXF 393 renal
SNB-19 CNS = tested on: SNB-19 CNS
SNB-75 CNS = tested on: SNB-75 CNS

SMILES	TGI (786-0 renal) [µM]	TGI (CCRF-CEM leukemia) [µM]	TGI (EKVX NSCLC) [µM]	TGI (HCT-116 colon) [µM]	TGI (KM12 colon) [µM]	TGI (MDA-N) [µM]	TGI (NCI-H23 lung) [µM]	TGI (OVCAR-5 ovarian) [µM]	TGI (RXF 393 renal) [µM]	TGI (SNB-19 CNS) [µM]	TGI (SNB-75 CNS) [µM]
O=[N+]([O-])c1cc(C2ON=C(c3ccccc3)N2C23CC4CC(CC(C4)C2)C3)ccc1Cl (centres undefined)	> 100	> 100	> 100	> 100	> 100	> 100	> 100	> 100	> 100	> 100	93.6
COc1ccc(-c2c3c(n(C4OC(COC(C)=O)C(OC(C)=O)C(OC(C)=O)C4OC(C)=O)c(=S)c2C#N)CCCC3)cc1 (centres undefined)	> 100	> 100	> 100	> 100	> 100	> 100	> 100	> 100	88.7	> 100	94
O=C1OCC(CN2CCC(n3c(=O)[nH]c4ccccc43)CC2)=C1c1ccccc1	82.5	60.5	57.1	92.7	31.2	78.7	52.2	> 100	> 100	67.3	72.4
COc1ccc(OC/C(N=Cc2cccnc2)=N/NC(=O)c2ccncc2)cc1	> 100	> 100	> 100	> 100	> 100	45.6	> 100	> 100	> 100	> 100	85.2
COc1ccc(OC)c2c1-c1nnnn1CCC2(C)C	> 100	> 100	> 100	> 100	> 100	> 100	> 100	> 100	> 100	> 100	> 100
[B]C(=O)NC(CC(C)C)C(=O)NC1c2ccsc2C(=O)C1O (centres undefined) (tested in a mixture with another compound)	> 100	> 100	> 100	> 100	> 100	> 100	> 100	> 100	> 100	> 100	> 100
Cc1c(OCc2cccc3ccccc23)ccc2c(=O)cc(S)oc12	> 100	54.1	> 100	77.5	> 100	> 100	80.7	> 100	> 100	> 100	> 100
Oc1ccccc1/C=N/N1C(=S)N(c2ccccc2)C(=Nc2ccccc2)C1=Nc1ccccc1	14.1	> 62.9	32.2	26.5	> 100	> 52.1	24.9	> 52.4	18.1	20.7	11.4
O=C1CCCC1C(O)(C(F)(F)Cl)C(F)(F)Cl (centres undefined)	> 10	> 10	> 10	> 10	> 10	> 10	> 10	> 10	> 10	> 10	> 10
CC1(C)CC(=O)C(/C=N/c2nc(-c3cccc([N+](=O)[O-])c3)cs2)=C(O)C1	29.9	5.69	46.6	28.1	> 100	36.5	37.3	> 100	46.9	46.9	59.9
COc1ccc2oc(=O)c(-c3nc4ccccc4s3)cc2c1	20.5	> 75.6	> 65	37.6	> 100	> 67.2	> 63.9	> 100	31	> 100	27.5
CC1(C)C/C=C\CCC(O)C(O)CCC(C)(C)C1=O (centres undefined)	> 100	> 100	> 100	> 100	> 100	> 100	> 100	> 100	> 100	> 100	> 100
COc1cc(CNC(=O)CCCCCCCCCCSC#N)ccc1O	41.5	62.9	54.6	28.1	19.3	31.3	43	85.8	21.9	48.3	29.3
O=[N+]([O-])C(=C(\Cl)NCCO)/C(Cl)=C(/Cl)Br	2.75	2.01	10.4	5.18	17.6	3.97	11.1	13.4	5.95	18	9.08
COC(=O)CC(c1ccccc1)C(C#N)(OP1(=O)OC(c2ccccc2)C(C)N1C)c1ccccc1 (centres undefined)	> 100	> 100	> 100	> 100	> 100	> 100	> 100	> 100	> 100	> 100	> 100
O=C1CN2CCN(CC2)CC(=O)Nc2ccc(cc2)S(=O)(=O)c2ccc(cc2)NC(=O)CN2CCN(CC2)CC(=O)Nc2ccc(cc2)S(=O)(=O)c2ccc(cc2)N1	> 100	1.81	> 100	71.9	> 100	> 100	> 90.4	67.7	> 100	> 100	> 100
COc1ccc(/C=C/C(=O)N[C@@H]2C(=O)N3[C@@H]2SC(C)(C)[C@@H]3C(=O)O)cc1OC	> 100	> 100	> 100	> 100	> 100	> 100	> 100	> 100	> 100	> 100	> 100
CCCCCC(=O)OC[n+]1ccc(-c2c(COC(=O)NC(C)C)c(COC(=O)NC(C)C)c3n2CCC3)cc1	> 100	> 100	> 100	> 100	> 100	> 100	> 100	> 100	> 100	> 100	> 100
CN1CCN2CCN(C)CCN(CC1)CC2	> 100	> 100	> 100	> 100	> 100	> 100	> 100	> 100	> 100	> 100	> 100

Reference: PubChem BioAssay (NCI)
